Data published in article PMC12524408 (International Journal of Molecular Sciences, 2025).

Experiments:
[1] = system: DSS-induced colitis; experiment: Dose-dependent study of intravenous PEG-AM in DSS-induced colitis (Study No. P170454); format: in vivo, mouse; settings: 1, 5, 25 nmol/kg single i.v. one day before 3% DSS (MW 5000); vs vehicle; n = 10 per group
Method: We examined the effects of intravenous administration of PEG-AM on DSS-induced colitis, as per the experimental design in Figure 4a. PEG-AM was administered one day before DSS exposure to evaluate its prophylactic effect against colitis onset and progression.  Figure 4 Dose-dependent effects of intravenous PEG-AM administration in DSS-induced colitis (Study No. P170454). (a) Overview of the experimental design. Groups: vehicle (n = 10), PEG-AM 1 nmol/kg (n = 10), 5 nmol/kg (n = 10), 25 nmol/kg (n = 10). (b) Total inflammation scores on day 8. (c) Colon length. (d) Colon weight-to-length ratio. (e) PEG-AM plasma concentrations on day 8. To evaluate the pharmacological effects of PEG-AM, three animal studies were conducted by the LSI Medience Corporation following the Animal Welfare Act and institutional approval. Seven-week-old male C57BL/6J JCL mice (CLEA Japan, Inc., Tokyo, Japan) were used in all studies and were housed under pathogen-free conditions. Colitis was induced with 3% (w/v) DSS (MW 5000) in drinking water for seven days. PEG-AM (1.0, 5.0, and 25 nmol/kg) or saline (control) was administered intravenously one day before DSS treatment. Each group included 10 mice. Stool consistency, bleeding, and body weight were evaluated on days −1, 0, 3, 5, and 7. A total inflammation score was calculated. Mice were anesthetized with 3% isoflurane (Zoetis Japan, Tokyo, Japan), and the colon was excised on day 7.

[2] = PEG-AM plasma concentration, Study No. P170454; format: in vivo; settings: 1 nmol/kg single i.v.; mouse; fluorescence immunoassay
Text: Figure 4 Dose-dependent effects of intravenous PEG-AM administration in DSS-induced colitis (Study No. P170454). (a) Overview of the experimental design. Groups: vehicle (n = 10), PEG-AM 1 nmol/kg (n = 10), 5 nmol/kg (n = 10), 25 nmol/kg (n = 10). (b) Total inflammation scores on day 8. (c) Colon length. (d) Colon weight-to-length ratio. (e) PEG-AM plasma concentrations on day 8.
Colitis was induced with 3% (w/v) DSS (MW 5000) in drinking water for seven days. PEG-AM (1.0, 5.0, and 25 nmol/kg) or saline (control) was administered intravenously one day before DSS treatment. Each group included 10 mice. Stool consistency, bleeding, and body weight were evaluated on days −1, 0, 3, 5, and 7. A total inflammation score was calculated. Mice were anesthetized with 3% isoflurane (Zoetis Japan, Tokyo, Japan), and the colon was excised on day 7.

40 kDa PEGylated adrenomedullin [PEG-AM]
Colon length [1]: comparable across all groups | Colon weight per unit length [1]: no significant differences | Total inflammation score on day 8 [1]: no statistically significant differences | PEG-AM plasma concentration on day 8 [2]: undetectable
